Measured values: ChEMBL document CHEMBL5465560, “Selectivity Literature for EUbOPEN Chemogenomic Library” (2024)

Key:
[1] = molecular target: Leukocyte tyrosine kinase receptor (Homo sapiens, UniProt P29376); assay: Selectivity interaction (Kinase panel (radiometric inhibition assay)) EUB0000651a LTK
[2] = molecular target: Protein kinase C alpha type (Homo sapiens, UniProt P17252); assay: Selectivity interaction (Kinase panel (radiometric inhibition assay)) EUB0000651a PRKCA
[3] = molecular target: Calcium/calmodulin-dependent protein kinase type II subunit alpha (Homo sapiens, UniProt Q9UQM7); assay: Selectivity interaction (Kinase panel (radiometric inhibition assay)) EUB0000651a CAMK2A
Chain of Calcium/calmodulin-dependent protein kinase type II subunit alpha (Q9UQM7 whole entry): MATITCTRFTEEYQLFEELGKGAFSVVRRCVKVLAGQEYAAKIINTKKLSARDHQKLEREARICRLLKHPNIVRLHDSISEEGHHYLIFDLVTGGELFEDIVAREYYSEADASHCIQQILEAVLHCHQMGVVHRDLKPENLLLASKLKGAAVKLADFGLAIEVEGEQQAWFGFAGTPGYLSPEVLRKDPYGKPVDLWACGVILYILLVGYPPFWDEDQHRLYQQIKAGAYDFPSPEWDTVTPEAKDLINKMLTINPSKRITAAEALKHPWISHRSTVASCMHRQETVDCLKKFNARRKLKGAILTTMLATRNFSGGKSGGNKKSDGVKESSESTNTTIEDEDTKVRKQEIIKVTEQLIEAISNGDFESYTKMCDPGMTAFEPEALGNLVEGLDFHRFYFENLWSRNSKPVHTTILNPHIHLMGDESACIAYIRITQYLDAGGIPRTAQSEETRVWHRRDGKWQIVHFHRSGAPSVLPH

[4] = molecular target: cAMP-dependent protein kinase catalytic subunit alpha (Homo sapiens, UniProt P17612); assay: Selectivity interaction (Kinase panel (radiometric inhibition assay)) EUB0000651a PRKACA
[5] = molecular target: Tyrosine-protein kinase SYK (Homo sapiens, UniProt P43405); assay: Selectivity interaction (Kinase panel (radiometric inhibition assay)) EUB0000651a SYK
[6] = molecular target: Mitogen-activated protein kinase 3 (Homo sapiens, UniProt P27361); assay: Selectivity interaction (Kinase panel (Invitrogen, enzymatic assay)) EUB0000623aCl MAPK3
[7] = molecular target: T1, Mitogen-activated protein kinase 14 (Homo sapiens, UniProt Q16539); assay: (§1) Selectivity interaction (Kinase panel (Invitrogen, enzymatic assay)) EUB0000623aCl MAPK14
T1 sequence (Q16539 whole entry): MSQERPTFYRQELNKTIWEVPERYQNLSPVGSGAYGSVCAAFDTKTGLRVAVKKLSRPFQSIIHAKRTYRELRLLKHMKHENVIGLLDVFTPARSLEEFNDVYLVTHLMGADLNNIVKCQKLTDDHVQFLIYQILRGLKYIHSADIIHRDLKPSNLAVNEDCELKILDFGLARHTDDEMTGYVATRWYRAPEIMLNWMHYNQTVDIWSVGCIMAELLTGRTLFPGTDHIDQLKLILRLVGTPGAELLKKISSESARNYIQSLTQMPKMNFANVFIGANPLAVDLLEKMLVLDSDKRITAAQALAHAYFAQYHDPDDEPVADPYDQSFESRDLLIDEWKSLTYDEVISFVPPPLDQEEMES

[8] = molecular target: Glycogen synthase kinase-3 beta (Homo sapiens, UniProt P49841); assay: Selectivity interaction (Kinase panel (Invitrogen, enzymatic assay)) EUB0000623aCl GSK3B
[9] = molecular target: Ephrin type-A receptor 3 (Homo sapiens, UniProt P29320); assay: Selectivity interaction (Kinase panel (Invitrogen, enzymatic assay)) EUB0000623aCl EPHA3
[10] = molecular target: Mitogen-activated protein kinase 8 (Homo sapiens, UniProt P45983); assay: Selectivity interaction (Kinase panel (Invitrogen, enzymatic assay)) EUB0000623aCl MAPK8
Chain of Mitogen-activated protein kinase 8 (P45983 whole entry): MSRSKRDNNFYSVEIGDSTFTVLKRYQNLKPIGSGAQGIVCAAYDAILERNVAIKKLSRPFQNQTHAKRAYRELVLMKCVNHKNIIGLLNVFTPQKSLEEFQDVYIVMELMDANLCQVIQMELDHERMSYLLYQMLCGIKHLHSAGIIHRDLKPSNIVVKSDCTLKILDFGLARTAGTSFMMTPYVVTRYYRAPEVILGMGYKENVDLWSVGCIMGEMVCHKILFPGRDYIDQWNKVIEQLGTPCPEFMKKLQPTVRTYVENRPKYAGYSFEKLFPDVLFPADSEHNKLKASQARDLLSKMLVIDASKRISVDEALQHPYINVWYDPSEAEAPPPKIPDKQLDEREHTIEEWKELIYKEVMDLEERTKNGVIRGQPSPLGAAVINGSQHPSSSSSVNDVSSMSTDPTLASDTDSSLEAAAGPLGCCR

[11] = molecular target: Mitogen-activated protein kinase kinase kinase 7 (Homo sapiens, UniProt O43318); assay: Selectivity interaction (Kinase panel (Invitrogen, enzymatic assay)) EUB0000623aCl MAP3K7
[12] = molecular target: Cyclin-dependent kinase 2 (Homo sapiens, UniProt P24941); assay: Selectivity interaction (Kinase panel (Invitrogen, enzymatic assay)) EUB0000623aCl CDK2
[13] = molecular target: Inhibitor of nuclear factor kappa-B kinase subunit beta (Homo sapiens, UniProt O14920); assay: Selectivity interaction (Kinase panel (Invitrogen, enzymatic assay)) EUB0000623aCl IKBKB
[14] = molecular target: Mitogen-activated protein kinase kinase kinase 1 (Homo sapiens, UniProt Q13233); assay: Selectivity interaction (Kinase panel (Invitrogen, enzymatic assay)) EUB0000623aCl MAP3K1
Chain of Mitogen-activated protein kinase kinase kinase 1 (Q13233 whole entry): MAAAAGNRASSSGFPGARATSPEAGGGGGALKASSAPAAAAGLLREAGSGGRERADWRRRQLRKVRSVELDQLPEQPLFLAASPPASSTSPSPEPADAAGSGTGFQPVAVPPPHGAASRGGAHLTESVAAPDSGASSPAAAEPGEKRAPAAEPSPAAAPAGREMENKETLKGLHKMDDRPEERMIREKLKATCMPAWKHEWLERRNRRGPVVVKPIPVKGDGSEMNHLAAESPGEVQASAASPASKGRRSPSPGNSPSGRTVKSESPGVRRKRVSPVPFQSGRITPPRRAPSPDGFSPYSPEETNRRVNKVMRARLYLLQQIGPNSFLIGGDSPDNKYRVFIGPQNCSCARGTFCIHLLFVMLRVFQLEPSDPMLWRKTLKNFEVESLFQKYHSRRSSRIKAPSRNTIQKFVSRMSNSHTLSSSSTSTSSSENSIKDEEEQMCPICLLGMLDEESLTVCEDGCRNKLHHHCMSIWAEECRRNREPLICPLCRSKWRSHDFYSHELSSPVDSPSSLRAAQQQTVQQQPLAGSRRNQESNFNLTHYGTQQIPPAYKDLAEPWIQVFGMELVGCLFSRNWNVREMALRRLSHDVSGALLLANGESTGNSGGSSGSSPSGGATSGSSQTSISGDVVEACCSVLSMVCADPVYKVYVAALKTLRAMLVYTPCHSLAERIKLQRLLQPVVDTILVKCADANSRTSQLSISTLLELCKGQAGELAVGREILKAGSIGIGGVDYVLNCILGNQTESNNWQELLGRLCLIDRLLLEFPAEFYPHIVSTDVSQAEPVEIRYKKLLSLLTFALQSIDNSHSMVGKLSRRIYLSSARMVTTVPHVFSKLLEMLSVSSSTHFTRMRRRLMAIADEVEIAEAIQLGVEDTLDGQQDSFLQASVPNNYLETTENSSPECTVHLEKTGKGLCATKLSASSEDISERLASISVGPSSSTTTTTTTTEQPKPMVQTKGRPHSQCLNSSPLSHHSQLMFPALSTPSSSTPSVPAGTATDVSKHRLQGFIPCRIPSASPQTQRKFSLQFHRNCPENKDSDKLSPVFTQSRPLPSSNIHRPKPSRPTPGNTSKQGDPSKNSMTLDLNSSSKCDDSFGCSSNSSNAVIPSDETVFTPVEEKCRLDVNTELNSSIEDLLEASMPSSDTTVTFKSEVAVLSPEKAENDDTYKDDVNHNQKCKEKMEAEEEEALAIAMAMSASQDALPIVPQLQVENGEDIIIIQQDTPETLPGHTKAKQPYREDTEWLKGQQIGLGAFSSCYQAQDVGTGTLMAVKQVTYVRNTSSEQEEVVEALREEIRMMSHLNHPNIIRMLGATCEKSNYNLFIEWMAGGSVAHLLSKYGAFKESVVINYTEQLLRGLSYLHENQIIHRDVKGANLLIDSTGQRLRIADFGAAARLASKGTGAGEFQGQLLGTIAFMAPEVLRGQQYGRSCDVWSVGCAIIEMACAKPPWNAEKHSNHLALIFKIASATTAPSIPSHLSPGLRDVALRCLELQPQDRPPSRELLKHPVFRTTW

[15] = molecular target: Protein kinase C theta type (Homo sapiens, UniProt Q04759); assay: Selectivity interaction (Kinase panel (Invitrogen, enzymatic assay)) EUB0000623aCl PRKCQ
Chain of Protein kinase C theta type (Q04759 whole entry): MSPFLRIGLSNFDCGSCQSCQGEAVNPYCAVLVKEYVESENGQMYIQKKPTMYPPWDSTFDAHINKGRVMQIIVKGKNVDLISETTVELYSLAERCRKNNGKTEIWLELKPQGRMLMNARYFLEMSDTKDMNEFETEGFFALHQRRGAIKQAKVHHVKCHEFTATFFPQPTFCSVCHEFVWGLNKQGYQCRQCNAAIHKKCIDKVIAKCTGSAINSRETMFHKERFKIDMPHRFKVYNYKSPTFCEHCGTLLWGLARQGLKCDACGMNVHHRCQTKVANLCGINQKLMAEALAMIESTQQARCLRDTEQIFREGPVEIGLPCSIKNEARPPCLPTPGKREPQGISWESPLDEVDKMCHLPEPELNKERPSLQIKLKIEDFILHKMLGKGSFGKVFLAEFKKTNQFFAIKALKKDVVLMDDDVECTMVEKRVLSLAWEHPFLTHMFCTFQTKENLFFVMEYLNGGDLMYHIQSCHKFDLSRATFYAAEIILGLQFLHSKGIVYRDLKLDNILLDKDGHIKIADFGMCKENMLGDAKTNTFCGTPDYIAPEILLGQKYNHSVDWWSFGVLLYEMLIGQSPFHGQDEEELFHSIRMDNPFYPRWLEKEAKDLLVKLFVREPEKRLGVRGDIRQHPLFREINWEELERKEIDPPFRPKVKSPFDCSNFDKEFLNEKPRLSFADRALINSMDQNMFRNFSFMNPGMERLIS

[16] = molecular target: T1, Mitogen-activated protein kinase 14; assay: as §1; remark: listed apart in the source
[17] = molecular target: Macrophage-stimulating protein receptor (Homo sapiens, UniProt Q04912); assay: Selectivity interaction (Kinase panel (Invitrogen, enzymatic assay)) EUB0000623aCl MST1R
Chain of Macrophage-stimulating protein receptor (Q04912 25-304 limits assumed): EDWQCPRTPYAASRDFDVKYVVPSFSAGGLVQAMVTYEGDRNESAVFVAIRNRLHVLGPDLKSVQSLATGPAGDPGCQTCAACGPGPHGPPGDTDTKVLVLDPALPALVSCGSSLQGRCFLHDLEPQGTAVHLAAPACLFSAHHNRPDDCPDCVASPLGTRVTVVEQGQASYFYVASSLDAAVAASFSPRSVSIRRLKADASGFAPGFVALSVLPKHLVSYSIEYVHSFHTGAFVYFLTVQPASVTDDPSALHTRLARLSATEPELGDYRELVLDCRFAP
Chain of Macrophage-stimulating protein receptor (Q04912 310-1400 limits assumed): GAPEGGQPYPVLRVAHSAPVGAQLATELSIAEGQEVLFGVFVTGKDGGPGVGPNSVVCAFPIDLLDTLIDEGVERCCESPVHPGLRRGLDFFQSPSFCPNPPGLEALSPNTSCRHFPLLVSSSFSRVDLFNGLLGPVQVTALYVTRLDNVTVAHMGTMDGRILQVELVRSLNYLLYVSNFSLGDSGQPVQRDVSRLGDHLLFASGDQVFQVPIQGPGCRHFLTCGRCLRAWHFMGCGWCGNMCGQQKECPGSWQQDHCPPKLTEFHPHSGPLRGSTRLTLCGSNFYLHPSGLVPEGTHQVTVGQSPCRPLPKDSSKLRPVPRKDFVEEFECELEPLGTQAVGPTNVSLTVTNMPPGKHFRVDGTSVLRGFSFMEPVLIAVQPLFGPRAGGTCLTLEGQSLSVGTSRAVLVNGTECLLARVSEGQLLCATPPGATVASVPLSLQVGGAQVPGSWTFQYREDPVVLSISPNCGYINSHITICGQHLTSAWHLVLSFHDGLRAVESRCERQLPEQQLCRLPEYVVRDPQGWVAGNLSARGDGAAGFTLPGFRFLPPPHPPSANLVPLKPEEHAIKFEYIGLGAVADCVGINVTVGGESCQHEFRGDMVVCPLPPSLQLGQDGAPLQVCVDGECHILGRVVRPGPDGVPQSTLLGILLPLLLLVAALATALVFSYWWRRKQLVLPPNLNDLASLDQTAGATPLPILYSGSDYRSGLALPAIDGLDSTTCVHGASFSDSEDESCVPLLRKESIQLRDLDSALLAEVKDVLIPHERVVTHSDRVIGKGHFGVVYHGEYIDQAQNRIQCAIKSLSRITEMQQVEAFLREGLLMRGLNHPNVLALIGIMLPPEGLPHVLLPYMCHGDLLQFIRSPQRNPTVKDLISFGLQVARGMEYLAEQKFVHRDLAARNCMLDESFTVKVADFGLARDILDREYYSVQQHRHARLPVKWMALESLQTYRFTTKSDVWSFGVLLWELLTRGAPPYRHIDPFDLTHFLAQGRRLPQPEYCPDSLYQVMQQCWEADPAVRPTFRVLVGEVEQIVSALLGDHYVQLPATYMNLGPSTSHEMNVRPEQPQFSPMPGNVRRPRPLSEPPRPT

[18] = molecular target: Epidermal growth factor receptor (Homo sapiens, UniProt P00533); assay: Selectivity interaction (Kinase panel (Invitrogen, enzymatic assay)) EUB0000623aCl EGFR
[19] = molecular target: Receptor tyrosine-protein kinase erbB-4 (Homo sapiens, UniProt Q15303); assay: Selectivity interaction (Kinase panel (Invitrogen, enzymatic assay)) EUB0000623aCl ERBB4

Row | IC50 [1] [µM] | IC50 [2] [µM] | IC50 [3] [µM] | IC50 [4] [µM] | IC50 [5] [µM] | IC50 [6] [µM] | IC50 [7] [µM] | IC50 [8] [µM] | IC50 [9] [µM] | IC50 [10] [µM] | IC50 [11] [µM] | IC50 [12] [µM] | IC50 [13] [µM] | IC50 [14] [µM] | IC50 [15] [µM] | IC50 [16] [µM] | IC50 [17] [µM] | IC50 [18] [µM] | IC50 [19] [µM] | Compound
1 | 2.4 | 24 | 33.5 | > 50 | > 50 |  |  |  |  |  |  |  |  |  |  |  |  |  |  | COc1cc(C)c(Sc2cnc(NC(=O)c3ccc(CNC(C)C(C)(C)C)cc3)s2)cc1C(=O)N1CCN(C(C)=O)CC1 (centres undefined)
2 |  |  |  |  |  | > 10 | > 20 | > 10 | > 20 | > 10 | > 10 | 0.158 | > 10 | > 10 | > 10 | > 10 | > 20 | > 20 | > 20 | CC(C)(C)c1ccc(C(=O)Nc2cn3cc(-n4ccnc4)ccc3n2)cc1
